From patent US6897316B2, “Substituted 2-phenyl-4-quinolone-3-carboxylic acid compounds and their use as antitumor agents” (China Medical University, priority 2003, dated 2005) come the findings set out here.

Experiment [1] relates to glioblastoma (U87-MG) cell line. As to the kind of experiment: Activity against HTCL replication, U87-MG. It counts as cell-based, human. The conditions noted are these: mean ED50. Here is the method: Compounds were assayed for in vitro cytotoxicity in a panel of human tumor cell lines at the School of Pharmacy, University of North Carolina at Chapel Hill, according to procedures described previously [Lee, K. H., Lin, Y. M., Wu, T. S., Zhang, D. C., Yamagishi, T., Hayashi, T., Hall, I. H., Chang, J. J., Wu, R. Y., Yang, T. H. The cytotoxic principles of Prunella vulgaris, Psychotria serpens, and Hyptis capitata: Ursolic acid and related derivatives. Planta Med. 1988, 54, 308-11; Boyd, M. R. Status of the National Cancer Institute preclinical antitumor drug discovery screen: implications for selection of new agents for clinical trial. Devita, V. T., Jr. Hellman, S., Rosenberg, S. A., Eds, J. B. Cancer: Principles and Practice of Oncology Update, 1989, 3: pp1-12, Lippincoft: Philadephia; Monks, A., Scudiero, D., Skehan, P., Shoemaker, R., Paull, K., Vistica, D., Hose, C., Langley, J., Cronise, P., Vaigro-Wolff, A., Gray-Goodrich, M., Campbell, H., Mayo, J., Boyd, M. Feasibility of a high-flux anticancer drug screen using a diverse panel of cultured human tumor cell lines. J. Natl. Cancer Inst. 1991, 83, 757-66.] […]

The test system of the next experiment is OVCAR-4 (ovarian cancer). As to the kind of experiment: Growth inhibition in human cancer cell line panel, OVCAR-4. It is filed as cell-based. The conditions noted are these: 48 hr, SRB. The procedure: Compound IX-8 was evaluated growth inhibition activities against a panel of 39 human cancer cell lines including Human breast cancer MDA-MB-231 and the following human cancer cell lines were generously distributed by the National Cancer Institute (Frederick, Md.): lung cancer, NCI-H23, NCI-H226, NCI-H522, NCI-H460, A-549, DMS273 and DMS114; colon cancer, HGC-2998, KM-12, HT-29, HCT-15, and HCT-116; ovarian cancer, OVCAR-3, OVCAR-4, OVCAR-5, OVCAR-8, and SKOV-3; breast cancer, MCF-7; renal cancer, RXF-631L and ACHN; melanoma, LOX-IMVI; brain tumor, U251, SF-295, SF-539, SF-268, SNB-75, and SNB-78, and prostate cancer, DU-145 and PC-3. […]
The details of measuring cell growth inhibition are described elsewhere [Monks, A., Scudiero, D., Skehan, P., Shoemaker, R., Paull, K., Vistica, D., Hose, C., Langley, J., Cronise, P., Vaigro-Wolff, A., Gray-Goodrich, M., Campbell, H., Mayo, J., Boyd, M. Feasibility of a high-flux anticancer drug screen using a diverse panel of cultured human tumor cell lines. […] Then, the cell growth was determined according to the Sulforhodamine B assay, described by Skehan et al [Skehan, P., Storeng, R., Scudiero, D., Monks, A., McMahon, J., Vistica, D., Warren, J. T., Bokesch, H., Kenney, S., Boyd, M. R. New calorimetric cytotoxicity assay for anticancer-drug screening. […]

By GI50 is commonly meant the concentration giving 50% growth inhibition. Read a high GI50 as lower sensitivity of the cells.

≈ marks a conversion by molar mass, not a printed value.

Regarding `COc1ccc2[nH]c(-c3cccc(F)c3)c(C(=O)O)c(=O)c2c1` [IX-8, 3′-Fluoro-6-methoxy-2-phenyl-4-quinolone-3-carboxylic acid], in experiment [1], the “ED50 U87-MG” value was found to be 1.50 µg/mL (≈ 4.79 µM). Besides, the concentration for 50% growth inhibition (GI50) in the experiment on OVCAR-4 (ovarian cancer) was 174 nM.
